# Measured values published in patent US12582720B2, “Compound for preventing or treating lipid metabolism-related diseases” (Fudan University, priority 2020, dated 2026).
# Assays:
# [1] = tested on: lipid droplets in SH-SY5Y cells; test: Reduction of OA-induced lipid droplets in SH-SY5Y cells; assay type: cell-based, human; settings: unconjugated compound 5 μM
# From the text: The reduction of lipid droplets in SH-SY5Y cells by Compound 1A and Compound 2A was detected by a method that was similar to Example 2, and the result was shown in FIG. 18.
# The effects of unconjugated LC3 binding Compound A1, A5 and unconjugated lipid droplet probe ORBB […] respectively on lipid droplets in SH-SY5Y cells (FIG. 20A) and MEF cells (FIG. 20B) were detected by a method similar to Example 2.
# [2] = tested on: autophagosome-lipid droplet colocalization in MEF cells; test: Colocalization of autophagosome and lipid droplets in mCherry-LC3B transfected MEF cells; assay type: cell-based, mouse; settings: 5 μM, 3 h, compared to DMSO control
# Method in brief: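 mCherry-LC3B expressed in MEF cells by plasmid transfection; lipid droplets induced with OA at 30 h post-transfection, compound added 6 h later for 3 h. Cells fixed, stained with BODIPY and DAPI, and LC3 puncta around lipid droplets imaged by confocal microscopy.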
# LC3 = LC3 (Homo sapiens, UniProt Q9GZQ8); settings: reported by Li et al., Nature 575, 203-209 (2019); cited from earlier work
# LC3B = LC3B (Homo sapiens, UniProt Q9GZQ8); test: OI-RD detection of affinity activity with LC3B; assay type: binding; parameters: Gly-Gly (two glycines added in place of the start Met); His8 (followed by TEV site) (N, cleaved yes); GST (from the pGEX-6P1 backbone) (N, cleaved yes); made in house; host or cells: Escherichia coli BL21(DE3)pLysS; settings: LC3B 238 nM, read-out: Kd (nM), equilibrium dissociation constant of affinity reaction between the compound and LC3B detected by OI-RD
# Method: Each compound was dot printed 3 copies. The compounds that not fixed on surface of the chips were washed, and the chips were sealed and cleaned. OI-RD microscope was used to scan the images. […] The chips were washed and scanned. OI-RD images before, during and after incubation with target protein were obtained. The signal change in real-time dynamic change image was analyzed, and the signal was collected once per 10 millisecond.
smiles,measurement,setting,value
"O=C1Nc2ccc(I)cc2C1=Cc1cc(Br)c(O)c(Br)c1 [Compound A1, 3-(3,5-dibromo-4-hydroxylbenzylidene)-5-iodoindolin-2-one, reference compound]",lipid droplets (number and size),[1],did not significantly decrease or become smaller
same,ratio of colocalization of red and green aggregation point (autophagosome-lipid droplet),[2],No such effect
same,binding to LC3,LC3,can bind to LC3 with affinity
same,Kd,LC3B,468 nM
